For data set [1], the system named is Plasmopara viticola. Kind of data set: Plasmopara test (grapevine)/protective. In kind it is in vivo. To be noted: protective, active compound concentration 500 ppm, evaluation 6 days after inoculation. The protocol: Plasmopara Test (Grapevine)/Protective
To produce a suitable preparation of active compound, 1 part by weight of active compound is mixed with the stated amounts of solvent and emulsifier, and the concentrate is diluted with water to the desired concentration.
To test for protective activity, young plants are sprayed with the preparation of active compound at the stated application rate. After the spray coating has dried on, the plants are inoculated with an aqueous spore suspension of Plasmopara viticola and then remain in an incubation cabin at about 20° C. and 100% relative atmospheric humidity for 1 day. The plants are then placed in a greenhouse at about 21° C. and about 90% atmospheric humidity for 4 days. The plants are then moistened and placed in an incubation cabin for 1 day.
Evaluation is carried out 6 days after the inoculation. 0% means an efficacy which corresponds to that of the control, whereas an efficacy of 100% means that no infection is observed.

Data set [2] concerns Phytophthora infestans. In kind it is in vivo. As to conditions: tomato plants, protective, active compound concentration 500 ppm, evaluation 7 days after inoculation.
For data set [3] the following is noted: acidic range, pH 2.7, 0.1% aqueous formic acid/acetonitrile.
Procedure: (§1) Calibration was carried out using unbranched alkan-2-ones (having from 3 to 16 carbon atoms) with known log P values (the log P values were determined by the retention times using linear interpolation between two successive alkanones).
Data set [4] can be described thus: physchem.
Procedure: as §1
Where [5] appears, read: pH 2.7, log P [a], acidic range, pH 2.7, 0.1% aqueous formic acid/acetonitrile.

SMILES strings stand for the structures.

Consider `CC(CC(=O)c1c(F)cccc1F)c1csc(C2CCN(C(=O)Cn3nc(C(F)F)cc3C(F)F)CC2)n1` (stereo not shown) [Compound I-51], for which the results for the efficacy in data set [1] and in data set [2] were 100% and 98%, respectively.
For the compound `O=C(/C=C/c1csc(C2CCN(C(=O)Cn3nc(C(F)F)cc3C(F)F)CC2)n1)c1c(F)cccc1Cl` [Compound I-36], in data set [3], the “log P [a]” value is 3.54^[a];. The values for the efficacy in data set [1] and in data set [2] were 96% and 100%, respectively.
`CON=C(CC1CCCCC1)c1csc(C2CCN(C(=O)Cn3nc(C(F)F)cc3C(F)F)CC2)n1` [Compound I-60, 2-[3,5-Bis(difluoromethyl)-1H-pyrazol-1-yl]-1-{4-[4-(2-cyclohexyl-N-methoxyethanimidoyl)-1,3-thiazol-2-yl]piperidin-1-yl}ethanone]: the chromatographic logP in data set [4] (setting [5]) stood at 4.8. The compound also gave an efficacy in data set [2] of 95%.
`O=C(CC1CCCCC1)c1csc(C2CCN(C(=O)Cn3nc(C(F)F)cc3C(F)F)CC2)n1` [Compound I-24, 2-[3,5-Bis(difluoromethyl)-1H-pyrazol-1-yl]-1-{4-[4-(cyclohexylacetyl)-1,3-thiazol-2-yl]piperidin-1-yl}ethanone]: the efficacy in data set [1] was 100%; in data set [2] it was 94%.
As to `O=C(/C=C/c1csc(C2CCN(C(=O)Cn3nc(C(F)F)cc3C(F)F)CC2)n1)c1cc(F)ccc1Cl` [Compound I-35], in data set [3], the “log P [a]” value was 3.64^[a];. Also, the efficacy in data set [1] turned out to be 89%; in data set [2], 95%.
As to `O=C(/C=C/c1csc(C2CCN(C(=O)Cn3nc(C(F)F)cc3C(F)F)CC2)n1)C1CCCCC1` [Compound I-44], in data set [3], the “log P [a]” value is 3.89^[a]. In addition, the efficacy in data set [1] stood at 74%; in data set [2], 95%.
Regarding `O=C(/C=C/c1csc(C2CCN(C(=O)Cn3nc(C(F)F)cc3C(F)F)CC2)n1)c1ccccc1Br` [Compound I-29], in data set [3], the “log P [a]” value was 3.51^[a];. Further, the efficacy in data set [1] worked out at 95%; in data set [2] it was 100%.
As for `O=C(/C=C/c1csc(C2CCN(C(=O)Cn3nc(C(F)F)cc3C(F)F)CC2)n1)c1cccc(F)c1` [Compound I-52], the “log P [a]” value in data set [3] was 3.35^[a]. The efficacy is given as 94% in data set [1] and 98% in data set [2].
For the compound `O=C(/C=C/c1csc(C2CCN(C(=O)Cn3nc(C(F)F)cc3C(F)F)CC2)n1)C1CCCC1` [Compound I-49], the “log P [a]” value in data set [3] was 3.52^[a]. The results for the efficacy in data set [1] and in data set [2] were 79% and 90%, respectively.
For `O=C(CC1CCCCC1)c1csc(C2CCN(C(=O)Nc3cc(C(F)F)ccc3C(F)F)CC2)n1` [Compound I-30], the “log P [a]” value in data set [3] was 4.3^[a];. Also, the efficacy in data set [1] turned out to be 85%; in data set [2] it was 95%.
With `CC1CCCCC1C(=O)C=Cc1csc(C2CCN(C(=O)Cn3nc(C(F)F)cc3C(F)F)CC2)n1` (mixture of isomers) [Compound I-50], the “log P [a]” value in data set [3] was 4.11^[a]. Moreover, the efficacy in data set [1] is 93%; in data set [2], 95%.
For `Cc1ccc(Cl)cc1NC(=O)N1CCC(c2nc(C(=O)CC3CCCCC3)cs2)CC1` [Compound I-25, N-(5-Chloro-2-methylphenyl)-4-[4-(cyclohexylacetyl)-1,3-thiazol-2-yl]piperidine-1-carboxamide], the efficacy is reported as 96% in data set [1] and 100% in data set [2]. Moreover, the figures for the chromatographic logP in data set [4] (setting [5]) and in data set [4] (pH 7.8) were 4.51 and 4.55, respectively.
As to `C#CCOc1ccccc1C(=O)/C=C/c1csc(C2CCN(C(=O)Cn3nc(C(F)F)cc3C(F)F)CC2)n1` [Compound I-55], the “log P [a]” value in data set [3] is 3.28^[a]. Besides, the results for the efficacy in data set [1] and in data set [2] were 100% and 98%, respectively.
As to `O=C(/C=C/c1csc(C2CCN(C(=O)Cn3nc(C(F)F)cc3C(F)F)CC2)n1)c1c(F)cccc1F` [Compound I-22, (2E)-3-[2-(1-{[3,5-Bis(difluoromethyl)-1H-pyrazol-1-yl]acetyl}piperidin-4-yl)-1,3-thiazol-4-yl]-1-(2,6-difluorophenyl)prop-2-en-1-one], the efficacy in data set [1] and in data set [2] was 100% each time. In data set [4] (setting [5]), this compound came in with a chromatographic logP of 3.35.
In the case of `O=C(/C=C/c1csc(C2CCN(C(=O)Cn3nc(C(F)F)cc3C(F)F)CC2)n1)c1ccc(F)cc1Br` [Compound I-34], the “log P [a]” value in data set [3] was 3.7^[a];. Besides, the figures for the efficacy in data set [1] and in data set [2] were 84% and 95%, respectively.
Taken in the same sequence, the figures for `O=C(/C=C/c1csc(C2CCN(C(=O)Cn3nc(C(F)F)cc3C(F)F)CC2)n1)c1cccc2ccccc12` [Compound I-46] were 2.84^[a], 100% and 95%.
Take `O=C(/C=C/c1csc(C2CCN(C(=O)Cn3nc(C(F)F)cc3C(F)F)CC2)n1)c1ccccc1I` [Compound I-33]: the “log P [a]” value in data set [3] was 3.65^[a];. Besides, the efficacy in data set [1] amounted to 89%; in data set [2] it was 95%.
`O=C(/C=C/c1csc(C2CCN(C(=O)Cn3nc(C(F)F)cc3C(F)F)CC2)n1)c1c(F)cc(F)cc1F` [Compound I-57]: in data set [3], the “log P [a]” value was 3.51^[a];. For the same compound, the efficacy in data set [1] was 91%; in data set [2], 98%.
Taken in the same sequence, the figures for `O=C(/C=C/c1csc(C2CCN(C(=O)Cn3nc(C(F)F)cc3C(F)F)CC2)n1)c1c(Cl)cccc1Cl` [Compound I-43] were 3.7^[a], 100% and 90%.
On to `Cc1ccccc1C(=O)/C=C/c1csc(C2CCN(C(=O)Cn3nc(C(F)F)cc3C(F)F)CC2)n1` [Compound I-45], for which the “log P [a]” value in data set [3] is 3.56^[a]. Besides, the efficacy came out at 100% in data set [1] and 95% in data set [2].
Taken in the same sequence, the figures for `O=C(/C=C/c1csc(C2CCN(C(=O)Cn3nc(C(F)F)cc3C(F)F)CC2)n1)c1ccccc1Cl` [Compound I-42] were 3.51^[a], 90% and 100%.

A word on the chromatographic logP: it is lipophilicity estimated from chromatographic retention. Read a high chromatographic logP as higher lipophilicity.

(Values after US9357779B2 (priority 2010, dated 2016).)
